Measured values taken from patent US11261478B2, “Thermal stable luciferase with improved resistance to inhibition by luciferin break-down products” (priority 2016, dated 2022).

Assays:
[1] = molecular target: UltraGlo luciferase variant Triple+300 (H244W, T344A, I396K, C300G), SEQ ID NO: 11 (Photuris pensylvanica, UniProt Q27757, A101V/A17E/A262V/C221A/D34A/D353K/D394P/E2A/F294L/F367L/F500Y/G84S/H14Y/H220I/H244W/I125V/I173S/I396K/K413N/L193S/L91V/N183Y/N412D/N499D/P295A/R357K/S105N/S204P/S36P/S399G/S502A/T234S/T249M/T344A/T354G/T386P/V145I/V194I/V203L/V300G/V356A/Y144S/Y27D); assay: Competitive inhibition of F-luciferin luminescence by dehydro-F-luciferin, purified Triple+300 luciferase mutant; assay type: biochemical; conditions: F-luciferin 1 mM, ATP 0.5 mM final, 3 minutes at room temperature, Michaelis-Menten competitive inhibition model
Procedure: (§1) To explore the inhibition of F-luciferin luminescence by dehydro-F-luciferin by combination mutants, the mutant Triple+300 (H244W, T344A, I396K, C300G) was screened for its resistance to dehydroluciferin.
(§2) Purified UltraGlo and Triple+300 luciferase enzymes were serially diluted from stocks in 1×TBS+1.0% Prionex to a concentration of 0.01 mg/ml. Racemic F-luciferin was serially diluted from stocks in water to 22 mM. Racemic dehydro-F-luciferin was serially diluted from stocks in water to 10 mM, and then 8 consecutive 4-fold serial dilutions were carried out for each concentration tested. ATP was diluted to 1 mM in BrightGlo Buffer or Detection Reagent buffer (depending on final reaction destination) to 1 mM concentration.
(§3) The following components were then combined into wells of a flat bottom, white, 96-well plate: 50 ul diluted ATP in buffer (BrightGlo or Detection Reagent; 0.5 mM final concentration), 50 ul diluted luciferase enzyme ([…] final concentration), 5 ul diluted F-luciferin (1 mM final concentration), and 4 ul diluted dehydro-F-luciferin ([…] final concentration)
(§4) Reactions were incubated for 3 minutes at room temperature, and luminescence was measured using a GloMax Multi+plate reader. Data were analyzed in GraphPad Prism 7 using nonlinear regression by fitting the data to a Michaelis-Menten competitive inhibition enzyme kinetic model.

[2] = molecular target: T1, UltraGlo luciferase (parent, ULTRA GLO luciferase, SEQ ID NO: 3) (Photuris pensylvanica, UniProt Q27757, A101V/A17E/A262V/C221A/D34A/D353K/D394P/E2A/F294L/F367L/F500Y/G84S/H14Y/H220I/I125V/I173S/K413N/L193S/L91V/N183Y/N412D/N499D/P295A/R357K/S105N/S204P/S36P/S399G/S502A/T234S/T249M/T354G/T386P/V145I/V194I/V203L/V300C/V356A/Y144S/Y27D); assay: Competitive inhibition of F-luciferin luminescence by dehydro-F-luciferin, purified UltraGlo luciferase; assay type: biochemical; conditions: F-luciferin 1 mM, ATP 0.5 mM final, 3 minutes at room temperature, Michaelis-Menten competitive inhibition model
T1 construct: full length, 552 aa
Procedure: as §1, §2, §3, §4

Chain of UltraGlo luciferase variant Triple+300 (H244W, T344A, I396K, C300G), SEQ ID NO: 11 (Q27757 other isoform, or with tags, fused parts or gaps with the stated changes): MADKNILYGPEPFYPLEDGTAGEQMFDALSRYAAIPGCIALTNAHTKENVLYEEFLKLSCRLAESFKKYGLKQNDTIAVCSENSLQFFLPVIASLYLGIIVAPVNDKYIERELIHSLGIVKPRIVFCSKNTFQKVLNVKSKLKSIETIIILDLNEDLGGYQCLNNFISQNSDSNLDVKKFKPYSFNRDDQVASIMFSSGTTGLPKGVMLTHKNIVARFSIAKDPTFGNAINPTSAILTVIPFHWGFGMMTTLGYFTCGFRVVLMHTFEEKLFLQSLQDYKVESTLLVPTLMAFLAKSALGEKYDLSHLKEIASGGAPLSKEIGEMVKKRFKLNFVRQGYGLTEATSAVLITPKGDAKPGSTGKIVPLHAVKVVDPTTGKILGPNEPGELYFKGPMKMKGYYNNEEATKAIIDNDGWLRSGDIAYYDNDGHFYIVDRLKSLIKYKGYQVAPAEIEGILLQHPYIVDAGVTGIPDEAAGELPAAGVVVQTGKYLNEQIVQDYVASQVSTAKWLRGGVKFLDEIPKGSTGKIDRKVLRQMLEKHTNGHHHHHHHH
T1 sequence (Q27757 other isoform, or with tags, fused parts or gaps with the stated changes): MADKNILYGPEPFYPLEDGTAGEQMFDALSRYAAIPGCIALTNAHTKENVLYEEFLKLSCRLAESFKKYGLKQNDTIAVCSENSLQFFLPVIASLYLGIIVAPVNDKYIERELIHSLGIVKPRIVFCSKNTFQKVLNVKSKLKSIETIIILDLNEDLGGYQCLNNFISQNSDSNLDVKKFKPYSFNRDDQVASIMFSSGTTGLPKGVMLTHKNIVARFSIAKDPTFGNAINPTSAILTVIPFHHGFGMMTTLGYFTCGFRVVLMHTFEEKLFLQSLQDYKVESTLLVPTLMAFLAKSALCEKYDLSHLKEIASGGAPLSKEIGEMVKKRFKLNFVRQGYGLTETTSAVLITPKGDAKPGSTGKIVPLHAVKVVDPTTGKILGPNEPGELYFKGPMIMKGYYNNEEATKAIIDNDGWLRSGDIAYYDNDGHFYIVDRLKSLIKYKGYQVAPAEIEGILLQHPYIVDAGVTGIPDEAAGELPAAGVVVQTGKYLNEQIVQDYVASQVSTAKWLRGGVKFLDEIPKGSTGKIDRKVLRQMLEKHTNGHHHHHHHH

O=C(O)c1csc(-c2nc3cc(F)c(O)cc3s2)n1 [dehydro-F-luciferin]
Ki ([1]; BrightGlo buffer): 71.8 nM | Ki ([1]; Detection Reagent buffer): 563 nM | Ki ([2]; BrightGlo buffer): 39.9 nM | Ki ([2]; Detection Reagent buffer): 420 nM
